From patent US4477443A, “Tylosin derivatives, their preparation and pharmaceutical compositions containing them” (Zaidan Hojin Biselbutsu Kagaku Kenkyu Kai (Microbial …, priority 1981, dated 1984)
≈ marks a conversion by molar mass, not a printed value. Read-outs that look alike come from different tables or passages of the source.

What was measured:
Format in all cases: cell-based
E. coli NIHJ = test: antimicrobial activity (MIC), Table I; conditions: Escherichia coli; E. coli NIHJ; read-out: MIC
Kleb. pneumoniae PCI 602 = test: antimicrobial activity (MIC), Table I; conditions: Klebsiella pneumoniae, PCI602; Kleb. pneumoniae PCI 602; read-out: MIC
Staph. aureus 193 = test: antimicrobial activity (MIC), Table I; conditions: Staphylococcus aureus; Staph. aureus 193; read-out: MIC
E. coli K-12 = test: antimicrobial activity (MIC), Table I; conditions: Escherichia coli, K12; E. coli K-12; read-out: MIC
B. subtilis NRRL B-558 = test: antimicrobial activity (MIC), Table I; conditions: Bacillus subtilis, NRRLB558; B. subtilis NRRL B-558; read-out: MIC
E. coli K-12 ML 1410 = test: antimicrobial activity (MIC), Table I; conditions: Escherichia coli, K12ML1410
Staph. aureus MS 9861 = test: antimicrobial activity (MIC), Table I; conditions: Staphylococcus aureus, MS9861; Staph. aureus MS 9861; read-out: MIC
E. coli K-12 LA 290 R 55 = test: antimicrobial activity (MIC), Table I; conditions: Escherichia coli
[1] = test system: Shigella dysenteriae JS 11910; test: antimicrobial activity (MIC), Table I; conditions: JS11910
E. coli K-12 R-5 = test: antimicrobial activity (MIC), Table I; conditions: Escherichia coli, K12R5; E. coli K-12 R-5; read-out: MIC
Staph. aureus 209 P = test: antimicrobial activity (MIC), Table I; conditions: Staphylococcus aureus; Staph. aureus 209 P; read-out: MIC
Sarcina lutea PCI 1001 = test: antimicrobial activity (MIC), Table I; conditions: Micrococcus luteus, PCI1001; Sarcina lutea PCI 1001; read-out: MIC
Coryn. bovis 1810 = test: antimicrobial activity (MIC), Table I; conditions: Corynebacterium bovis; Coryn. bovis 1810; read-out: MIC
Sal. enteritidis 1891 = test: antimicrobial activity (MIC), Table I; conditions: Salmonella enterica; Sal. enteritidis 1891; read-out: MIC
Pro. vulgaris OX-19 = test: antimicrobial activity (MIC), Table I; conditions: Proteus vulgaris, OX19
[2] = test system: Staph. epidermidis IID 886; test: antimicrobial activity (MIC), Table II; conditions: Staphylococcus epidermidis, IID886
Staph. aureus KC-11 = test: antimicrobial activity (MIC), Table II; conditions: Staphylococcus aureus, KC11; Staph. aureus KC-11; read-out: MIC
B. subtilis ATCC 6633 = test: antimicrobial activity (MIC), Table II; conditions: Bacillus subtilis, ATCC6633
Staph. aureus ATCC 6538P = test: antimicrobial activity (MIC), Table II; conditions: Staphylococcus aureus, ATCC6538P
Staph. aureus 226 = test: antimicrobial activity (MIC), Table II; conditions: Staphylococcus aureus; Staph. aureus 226; read-out: MIC
B. cereus = test: antimicrobial activity (MIC), Table II; conditions: Bacillus cereus
[3] = Pro. vulgaris OX-19, read-out: MIC
[4] = E. coli K-12 ML 1410, read-out: MIC

Structure (SMILES)	MIC (E. coli NIHJ) [µg/mL]	MIC (Kleb. pneumoniae PCI 602) [µg/mL]	MIC (Staph. aureus 193) [µg/mL]	MIC (E. coli K-12) [µg/mL]	MIC (B. subtilis NRRL B-558) [µg/mL]	MIC (E. coli K-12 ML 1410) [µg/mL]	MIC (Staph. aureus MS 9861) [µg/mL]	MIC (E. coli K-12 LA 290 R 55) [µg/mL]	MIC [1] [µg/mL]	MIC (E. coli K-12 R-5) [µg/mL]	MIC (Staph. aureus 209 P) [µg/mL]	MIC (Sarcina lutea PCI 1001) [µg/mL]	MIC (Coryn. bovis 1810) [µg/mL]	MIC (Sal. enteritidis 1891) [µg/mL]	MIC (Pro. vulgaris OX-19; [3]) [µg/mL]	MIC (E. coli K-12 ML 1410; [4]) [µg/mL]	MIC (Pro. vulgaris OX-19) [µg/mL]	other results
CCCN(CCC)CC1C=C(C)C=CC(=O)C(C)CC(CC=O)C(OC2OC(C)C(O)C(N(C)C)C2O)C(C)C(O)CC(=O)OC1CC (centres unmarked) [Example 6, 23-deoxy-23-dipropylaminomycaminosyl tylonolide]	0.78 (≈ 1.15 µM)	0.78 (≈ 1.15 µM)	< 0.2	1.56 (≈ 2.29 µM)	0.39 (≈ 0.573 µM)	3.12 (≈ 4.58 µM)	1.56 (≈ 2.29 µM)	1.56 (≈ 2.29 µM)	0.39 (≈ 0.573 µM)	1.56 (≈ 2.29 µM)	< 0.2	< 0.2	< 0.2	1.56 (≈ 2.29 µM)	1.56 (≈ 2.29 µM)			
CCC1OC(=O)CC(O)C(C)C(OC2OC(C)CC(N(C)C)C2O)C(CC=O)CC(C)C(=O)C=CC(C)=CC1CN1CCCCCCC1 (centres unmarked) [Example 19, 23,4'-dideoxy-23-heptamethyleneiminomycaminosyl tylonolide]	0.39 (≈ 0.576 µM)	0.2 (≈ 0.295 µM)	0.2 (≈ 0.295 µM)	0.78 (≈ 1.15 µM)	0.39 (≈ 0.576 µM)		0.78 (≈ 1.15 µM)	0.39 (≈ 0.576 µM)	< 0.2	0.78 (≈ 1.15 µM)	< 0.2	< 0.2	< 0.2	< 0.2		0.78 (≈ 1.15 µM)	0.39 (≈ 0.576 µM)	
CCC1OC(=O)CC(O)C(C)C(OC2OC(C)CC(N(C)C)C2O)C(CC=O)CC(C)C(=O)C=CC(C)=CC1CN(C)C (centres unmarked) [Example 9, 23,4'-dideoxy-23-dimethylaminomycaminosyl tylonolide]	< 0.2	0.2 (≈ 0.329 µM)	< 0.2	0.39 (≈ 0.641 µM)	< 0.2	0.39 (≈ 0.641 µM)	0.39 (≈ 0.641 µM)	0.39 (≈ 0.641 µM)	< 0.2	0.39 (≈ 0.641 µM)	< 0.2	0.2 (≈ 0.329 µM)	0.2 (≈ 0.329 µM)	< 0.2			0.78 (≈ 1.28 µM)	
CCC1OC(=O)CC(O)C(C)C(OC2OC(C)C(O)C(N(C)C)C2O)C(CC=O)CC(C)C(=O)C=CC(C)=CC1CN1CCCCC1 (centres unmarked) [Example 13, 23-deoxy-23-piperidinomycaminosyl tylonolide]	0.78 (≈ 1.17 µM)	0.39 (≈ 0.587 µM)	0.39 (≈ 0.587 µM)	1.56 (≈ 2.35 µM)	0.39 (≈ 0.587 µM)	3.12 (≈ 4.69 µM)	0.78 (≈ 1.17 µM)	1.56 (≈ 2.35 µM)	< 0.2	1.56 (≈ 2.35 µM)	0.39 (≈ 0.587 µM)	< 0.2	< 0.2	0.78 (≈ 1.17 µM)	1.56 (≈ 2.35 µM)			
CCC1OC(=O)CC(O)C(C)C(OC2OC(C)C(O)C(N(C)C)C2O)C(CC=O)CC(C)C(=O)C=CC(C)=CC1CN(CC)CC (centres unmarked) [Example 5, 23-deoxy-23-diethylamino mycaminosyl tylonolide]	1.56 (≈ 2.39 µM)	1.56 (≈ 2.39 µM)	0.78 (≈ 1.19 µM)	1.56 (≈ 2.39 µM)	0.78 (≈ 1.19 µM)	3.12 (≈ 4.78 µM)	12.5 (≈ 19.1 µM)	3.12 (≈ 4.78 µM)	1.56 (≈ 2.39 µM)	1.56 (≈ 2.39 µM)	0.78 (≈ 1.19 µM)	< 0.2	0.78 (≈ 1.19 µM)	3.12 (≈ 4.78 µM)			1.56 (≈ 2.39 µM)	
CCC1OC(=O)CC(O)C(C)C(OC2OC(C)CC(N(C)C)C2O)C(CC=O)CC(C)C(=O)C=CC(C)=CC1CN(CC)CC (centres unmarked) [Example 10, 23,4'-dideoxy-23-diethylaminomycaminosyl tylonolide]	< 0.2	0.2 (≈ 0.314 µM)	< 0.2	0.39 (≈ 0.612 µM)	< 0.2		0.78 (≈ 1.22 µM)	0.39 (≈ 0.612 µM)	< 0.2	0.39 (≈ 0.612 µM)	< 0.2	< 0.2	< 0.2	0.39 (≈ 0.612 µM)	0.39 (≈ 0.612 µM)	0.39 (≈ 0.612 µM)		
CC[C@H]1OC(=O)C[C@@H](O)[C@H](C)[C@@H](O[C@@H]2O[C@H](C)[C@@H](O[C@H]3C[C@@](C)(O)[C@@H](O)[C@H](C)O3)[C@H](N(C)C)[C@H]2O)[C@@H](CC=O)C[C@@H](C)C(=O)/C=C/C(C)=C/[C@@H]1CO[C@@H]1O[C@H](C)[C@@H](O)[C@@H](OC)[C@H]1OC [Tylosin]			0.78 (≈ 0.851 µM)	> 100		> 100		> 100		> 100		< 0.2	0.2 (≈ 0.218 µM)				> 100	MIC [2]: 1.56 µg/mL (≈ 1.7 µM); MIC (Staph. aureus KC-11): 1.56 µg/mL (≈ 1.7 µM); MIC (B. subtilis ATCC 6633): 0.78 µg/mL (≈ 0.851 µM); MIC (Staph. aureus ATCC 6538P; Staph. aureus ATCC 6538P, read-out: MIC): 1.56 µg/mL (≈ 1.7 µM); MIC (Staph. aureus 226): 1.56 µg/mL (≈ 1.7 µM); MIC (B. cereus): 0.78 µg/mL (≈ 0.851 µM)
CCC1OC(=O)CC(O)C(C)C(OC2OC(C)CC(N(C)C)C2O)C(CC=O)CC(C)C(=O)C=CC(C)=CC1CN1CCCCCC1 (centres unmarked) [Example 18, 23,4'-dideoxy-23-hexamethyleneiminomycaminosyl tylonolide]	0.39 (≈ 0.588 µM)	0.39 (≈ 0.588 µM)	< 0.2	0.78 (≈ 1.18 µM)	< 0.2		0.78 (≈ 1.18 µM)	0.78 (≈ 1.18 µM)	< 0.2	0.78 (≈ 1.18 µM)	< 0.2	< 0.2	< 0.2	< 0.2	0.78 (≈ 1.18 µM)	0.78 (≈ 1.18 µM)		
CCC1OC(=O)CC(O)C(C)C(OC2OC(C)CC(N(C)C)C2O)C(CC=O)CC(C)C(=O)C=CC(C)=CC1CNC1CC1 (centres unmarked) [Example 96, 23,4'-dideoxy-23-cyclopropylaminomycaminosyl tylonolide]																		MIC [2]: 0.39 µg/mL (≈ 0.628 µM); MIC (Staph. aureus KC-11): 0.78 µg/mL (≈ 1.26 µM); MIC (B. subtilis ATCC 6633; B. subtilis ATCC 6633, read-out: MIC): 0.78 µg/mL (≈ 1.26 µM); MIC (Staph. aureus ATCC 6538P): 0.39 µg/mL (≈ 0.628 µM); MIC (Staph. aureus 226): 0.78 µg/mL (≈ 1.26 µM); MIC (B. cereus; B. cereus, read-out: MIC): 0.39 µg/mL (≈ 0.628 µM)
